{
  "source": "paper PMC10244169",
  "about": "“Psychedelics promote plasticity by directly binding to BDNF receptor TrkB” (Nature Neuroscience, 2023)",
  "key": {"TrkA.TM chimera": {"test_system": "TrkA.TM chimera", "experiment": "^3H-LSD saturation binding, TrkB with TMD of TrkA", "details": "TMD of TrkB replaced by that of TrkA", "method": "(§1) Binding assays were performed as previously described with minor modifications. […] Samples from mouse embryo (E18) brains were also lysed, vortexed, sonicated and centrifuged for binding assays. Plates were then washed with PBS. […] For the competition binding assays with biotinylated R,R-HNK, the amino-biotinylation of R,R-HNK was performed using a commercial kit (Thermo Scientific, EZ-Link NHS-PEG4 Biotinylation Kit, 21455) and the reaction monitored by MS. A mixture of biotinylated R,R-HNK (10 µM) and unlabeled compounds (1 pM to 10 µM) in PBS was added to the 96-well plates containing the immunoprecipitated TrkB and incubated for 1 h at room temperature. […] Luminescence was determined via streptavidin conjugated with horseradish peroxidase (HRP; Thermo Fisher Scientific, 21126; 1:5,000, 1 h at room temperature) in reaction with the Pierce ECL substrate (Thermo Fisher Scientific, 32106). Luminescence from blank wells that contained all reagents but the sample lysates was used to determine nonspecific binding. To obtain the binding curves, results from binding assays were fitted to the equation of specific binding with Hill slope from GraphPad Prism 9.2. To calculate koff values, results were fitted to the equation of dissociation of one phase exponential decay from GraphPad Prism 9.2."}, "rat TrkB (WT)": {"target": "T1, rat TrkB (WT) (Rattus norvegicus, UniProt Q63604)", "T1 construct": "expressed in transfected cells; host or cells: HEK293T", "T1 sequence (Q63604 32-821)": "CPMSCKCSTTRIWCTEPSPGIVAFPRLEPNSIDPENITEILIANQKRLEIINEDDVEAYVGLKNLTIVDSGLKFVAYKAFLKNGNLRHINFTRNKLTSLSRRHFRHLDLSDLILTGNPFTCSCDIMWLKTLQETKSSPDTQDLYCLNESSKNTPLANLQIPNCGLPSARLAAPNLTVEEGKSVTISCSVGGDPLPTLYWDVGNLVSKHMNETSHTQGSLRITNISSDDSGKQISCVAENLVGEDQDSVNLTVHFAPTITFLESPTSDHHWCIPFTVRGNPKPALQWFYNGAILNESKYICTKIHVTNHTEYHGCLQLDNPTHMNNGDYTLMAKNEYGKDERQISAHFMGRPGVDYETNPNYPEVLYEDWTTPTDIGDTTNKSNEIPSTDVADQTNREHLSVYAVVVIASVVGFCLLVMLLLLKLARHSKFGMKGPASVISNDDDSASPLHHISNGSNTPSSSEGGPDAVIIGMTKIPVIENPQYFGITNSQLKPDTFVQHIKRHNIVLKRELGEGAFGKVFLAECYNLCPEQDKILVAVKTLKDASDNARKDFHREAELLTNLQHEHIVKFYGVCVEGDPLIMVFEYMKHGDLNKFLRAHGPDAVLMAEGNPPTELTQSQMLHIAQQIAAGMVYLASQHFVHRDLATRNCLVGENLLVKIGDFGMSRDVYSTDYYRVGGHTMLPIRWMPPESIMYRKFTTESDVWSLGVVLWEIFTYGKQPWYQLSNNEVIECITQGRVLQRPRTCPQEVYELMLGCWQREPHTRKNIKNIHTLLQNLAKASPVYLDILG", "experiment": "^3H-LSD saturation binding to TrkB immunoprecipitated from HEK293T lysates", "method": "as §1"}, "human TrkB": {"target": "T2, human TrkB (Homo sapiens, UniProt Q16620)", "T2 construct": "GFP; expressed in transfected cells; host or cells: HEK293T", "T2 sequence (Q16620 32-822)": "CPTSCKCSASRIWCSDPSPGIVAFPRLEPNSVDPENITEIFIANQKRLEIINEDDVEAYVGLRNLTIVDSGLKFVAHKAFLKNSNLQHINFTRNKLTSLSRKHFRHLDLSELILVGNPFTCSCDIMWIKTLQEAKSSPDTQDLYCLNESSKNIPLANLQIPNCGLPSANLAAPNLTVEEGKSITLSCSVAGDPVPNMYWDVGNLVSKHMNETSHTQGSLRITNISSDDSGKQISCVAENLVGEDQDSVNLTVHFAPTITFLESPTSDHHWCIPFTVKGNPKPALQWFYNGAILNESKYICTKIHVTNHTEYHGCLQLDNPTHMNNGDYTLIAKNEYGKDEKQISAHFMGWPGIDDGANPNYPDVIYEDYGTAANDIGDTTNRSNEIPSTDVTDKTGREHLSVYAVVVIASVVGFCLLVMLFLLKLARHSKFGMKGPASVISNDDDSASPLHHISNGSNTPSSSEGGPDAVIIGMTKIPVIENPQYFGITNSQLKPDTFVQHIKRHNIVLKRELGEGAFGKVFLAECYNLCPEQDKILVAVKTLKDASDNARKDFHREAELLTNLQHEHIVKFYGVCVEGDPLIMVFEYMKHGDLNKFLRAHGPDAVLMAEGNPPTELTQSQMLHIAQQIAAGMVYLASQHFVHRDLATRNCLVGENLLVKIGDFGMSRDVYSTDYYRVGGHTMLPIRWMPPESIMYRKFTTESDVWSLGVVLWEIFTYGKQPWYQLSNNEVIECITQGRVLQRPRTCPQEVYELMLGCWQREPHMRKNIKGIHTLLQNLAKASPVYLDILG", "experiment": "^3H-LSD saturation binding to TrkB immunoprecipitated from HEK293T lysates", "method": "as §1"}, "TrkB pY816": {"test_system": "TrkB pY816", "experiment": "ELISA of TrkB phosphorylation (pY816) in neuronal cultures", "type": "cell-based, rat", "details": "cortical and hippocampal cultures", "method": "(§2) The phosphorylation of TrkB (pY816) and interaction with PLCγ1 were assessed by enzyme-linked immunosorbent assay (ELISA) as previously described[11],[80],[81] with minor modifications. Briefly, white 96-well plates (PerkinElmer, OptiPlate 96F-HB) were precoated with goat anti-TrkB (R&D systems, AF1494; 1:500, overnight, 4 °C) antibody in carbonate buffer (pH 9.8) and blocked with 3% BSA in PBS with 0.1% Tween-20 (PBS-T) for 2 h at room temperature. […] Samples were incubated overnight at 4 °C, and 24 h later plates were washed with PBS-T and incubated with either rabbit anti-phospho-TrkB(Tyr816) (Cell Signaling Technology, 4168S; 1:2,000), rabbit anti-PLCγ1 (Cell Signaling Technologies, 5690S; 1:2,000) or rabbit anti-Trk (Cell Signaling Technologies, 92991; 1:2,000) antibodies overnight at 4 °C. After washing with PBS-T, plates were incubated with HRP-conjugated goat anti-rabbit (Bio-Rad, 170–5046; 1:5,000, 1 h, room temperature) antibody, followed by more washing with PBS-T. Finally, the chemiluminescent signal was read after brief incubation with Pierce ECL substrate (Thermo Fisher Scientific, 32106). Luminescence from blank wells that contained all reagents but the sample lysates was used to determine background signal."}, "TrkB Y433F": {"target": "T3, TrkB Y433F (Rattus norvegicus, UniProt Q63604, Y433F)", "T3 construct": "expressed in transfected cells; host or cells: HEK293T", "T3 sequence (Q63604 32-821 Y433F)": "as the sequence (Q63604 32-821) above, with Y402F counted along it", "experiment": "^3H-LSD saturation binding, TrkB mutant", "method": "as §1"}, "TrkB": {"test_system": "TrkB", "experiment": "Total TrkB expression in PFC and hippocampus after single LSD injection", "type": "in vivo, mouse", "details": "PFC or hippocampus, WT or Y433F^+/− mice", "method": "as §2"}, "mice": {"test_system": "mice", "experiment": "Contextual fear conditioning, extinction and fear reinstatement (incl. baseline locomotor activity)", "type": "in vivo, mouse", "details": "for Mean, figure 7k (contextual fear conditioning) / Mean, figure 7i (contextual fear conditioning) / Mean, figure 7j (contextual fear conditioning): LSD group; for Mean Diff., ext fig 7e: e7e; for Mean Diff., ext fig 7f: e7f; for Mean Diff., ext fig 7o: e7o, Bonferroni's multiple comparisons test", "method": "Male WT mice (C57BL/6JRccHsd, Envigo) were used for contextual fear conditioning experiments with and without extinction training as previously described[11],[34] with modifications. Briefly, animals were conditioned in context A (metallic bar flooring, transparent Plexiglass walls, 23 × 23 × 35 cm arena) with a series of five scrambled foot shocks (0.6 mA, 2 s) along a 480 s session. […] During the following 3 days, mice were exposed to extinction training in context A for 480 s every 24 h or placed for the same duration and number of sessions in context B (black planar floor, black nontransparent walls, 23 × 23 × 35 cm arena), which we categorized as extinction and no extinction trainings, respectively. Afterwards, animals were placed back into their home cage and left undisturbed for 3 weeks. Finally, all mice were reconditioned with a new set of five scrambled foot shocks (0.6 mA, 2 s) along a 480 s session in context A, and their fear reinstatement response was measured 24 h later for the same duration also in context A. All sessions were conducted under constant illumination (100 lux). For the contextual fear conditioning and fear reinstatement experiment with male WT and Y433F^+/−, we used the same protocol as for animals undergoing extinction training in context A above. Baseline freezing was established during the first conditioning session. Movement was measured by infrared beams placed on the sides of the conditioning chamber, and freezing was automatically determined by the fear conditioning apparatus and software (TSE Systems) and expressed as the percentage of time spent freezing."}, "Bdnf mRNA": {"test_system": "Bdnf mRNA", "experiment": "RT–qPCR of Bdnf mRNA in cortical neurons", "details": "for Bdnf mRNA, group mean (5f): LSD 100 nM"}, "[1]": {"details": "WT:Saline vs. WT:LSD, uncorrected Fisher's LSD"}, "[2]": {"details": "Y433F+/-:Saline vs. Y433F+/-:LSD, uncorrected Fisher's LSD"}, "[3]": {"details": "WT mice, saline minus LSD, uncorrected Fisher's LSD"}, "[4]": {"details": "Y433F+/- mice, saline minus LSD, uncorrected Fisher's LSD"}, "[5]": {"details": "means over WT and Y433F+/- mice"}},
  "data": [
    {"compound": "CCN(CC)C(=O)C1C=C2c3cccc4[nH]cc(c34)CC2N(C)C1", "note": "(stereo not shown) [LSD, lysergic acid diethylamide]", "values": [
      {"measurement": "LSD binding", "setting": "TrkA.TM chimera", "result": "completely abolishes LSD binding"},
      {"measurement": "Kd", "setting": "rat TrkB (WT)", "result": "0.656 ± 0.093", "unit": "nM"},
      {"measurement": "h (best-fit, 1a)", "setting": "rat TrkB (WT); WT, Hill slope", "result": 1.255},
      {"measurement": "Bmax (best-fit, 1a)", "setting": "rat TrkB (WT); WT, specific binding with Hill slope", "result": 100.9},
      {"measurement": "Bmax", "setting": "rat TrkB (WT); ^3H-LSD saturation, rat TrkB", "result": "3.053 ± 0.099", "unit": "pmol mg^−1 protein"},
      {"measurement": "Kd", "setting": "human TrkB", "result": "0.93 ± 0.414", "unit": "nM"},
      {"measurement": "Bmax", "setting": "human TrkB; ^3H-LSD saturation, human TrkB", "result": "4.028 ± 0.326", "unit": "pmol mg^−1 protein"},
      {"measurement": "Bmax (specific binding with Hill slope, best-fit)", "setting": "human TrkB; ext fig 1a, TRKB.wt, n=2", "result": 111.1},
      {"measurement": "h (Hill slope, best-fit)", "setting": "human TrkB; ext fig 1a, TRKB.wt, n=2", "result": 0.4722},
      {"measurement": "TrkB phosphorylation (pY816)", "setting": "TrkB pY816", "result": "increases phosphorylation of TrkB tyrosine 816 (pY816)"},
      {"measurement": "Kd", "setting": "TrkB Y433F; Kd (best-fit, 1a), Y433F, unit inferred", "result": 24.6, "unit": "nM"},
      {"measurement": "Kd", "setting": "TrkB Y433F; Kd, ^3H-LSD saturation, Y433F", "result": "24.6 ± 4.68", "unit": "nM"},
      {"measurement": "Bmax (best-fit, 1a)", "setting": "TrkB Y433F; Y433F", "result": 91.95},
      {"measurement": "h (best-fit, 1a)", "setting": "TrkB Y433F; Y433F", "result": 1.98},
      {"measurement": "LSD binding", "setting": "TrkB Y433F; Y433F point mutation", "result": "impairs LSD binding"},
      {"measurement": "total TrkB expression", "setting": "TrkB", "result": "remain unaffected"},
      {"measurement": "Mean Diff., Fig. 7i", "setting": "mice; [1]", "result": 14.87},
      {"measurement": "Mean Diff., Fig. 7i", "setting": "mice; [2]", "result": -1.67},
      {"measurement": "Mean Diff., Fig. 7j", "setting": "mice; [1]", "result": 16.98},
      {"measurement": "Mean Diff., Fig. 7j", "setting": "mice; [2]", "result": -1.138},
      {"measurement": "Mean Diff., Fig. 7k", "setting": "mice; Ext.:Saline vs. Ext.:LSD, uncorrected Fisher's LSD", "result": 21.67},
      {"measurement": "Mean Diff., Fig. 7k", "setting": "mice; No ext.:Saline vs. No ext.:LSD, uncorrected Fisher's LSD", "result": 7.778},
      {"measurement": "Mean, figure 7k (contextual fear conditioning)", "setting": "mice; Ext. (extinction training)", "result": 20.42},
      {"measurement": "Mean Diff., figure 7k, Ext.:Saline vs. Ext.:LSD", "setting": "mice; Ext., saline minus LSD, uncorrected Fisher's LSD", "result": 21.67},
      {"measurement": "fear extinction without extinction training", "setting": "mice; LSD alone, no extinction training", "result": "does not bring about fear extinction"},
      {"measurement": "Mean, figure 7k (contextual fear conditioning)", "setting": "mice; No ext.", "result": 44.56},
      {"measurement": "Mean Diff., figure 7k, No ext.:Saline vs. No ext.:LSD", "setting": "mice; No ext., saline minus LSD, uncorrected Fisher's LSD", "result": 7.778},
      {"measurement": "contextual extinction of conditioned fear response", "setting": "mice; WT mice, 72 h after single administration, persists at least 4 weeks, with extinction training", "result": "facilitates contextual extinction of conditioned fear response"},
      {"measurement": "Mean, figure 7i (contextual fear conditioning)", "setting": "mice; WT mice", "result": 20.6},
      {"measurement": "Mean, figure 7j (contextual fear conditioning)", "setting": "mice; WT mice", "result": 39.47},
      {"measurement": "Mean Diff., figure 7i, WT:Saline vs. WT:LSD", "setting": "mice; [3]", "result": 14.87},
      {"measurement": "Mean Diff., figure 7j, WT:Saline vs. WT:LSD", "setting": "mice; [3]", "result": 16.98},
      {"measurement": "Mean, figure 7i (contextual fear conditioning)", "setting": "mice; Y433F+/- mice", "result": 34.18},
      {"measurement": "Mean, figure 7j (contextual fear conditioning)", "setting": "mice; Y433F+/- mice", "result": 54.05},
      {"measurement": "Mean Diff., figure 7i, Y433F+/-:Saline vs. Y433F+/-:LSD", "setting": "mice; [4]", "result": -1.67},
      {"measurement": "Mean Diff., figure 7j, Y433F+/-:Saline vs. Y433F+/-:LSD", "setting": "mice; [4]", "result": -1.138},
      {"measurement": "contextual extinction of conditioned fear response", "setting": "mice; Y433F^+/− mice", "result": "these short- and long-term effects are lost"},
      {"measurement": "Mean Diff., ext fig 7e", "setting": "mice; [1]", "result": -2.065},
      {"measurement": "Mean Diff., ext fig 7e", "setting": "mice; [2]", "result": -2.882},
      {"measurement": "Mean Diff., ext fig 7f", "setting": "mice; [1]", "result": -1.252},
      {"measurement": "Mean Diff., ext fig 7f", "setting": "mice; [2]", "result": -6.692},
      {"measurement": "Mean Diff., ext fig 7o", "setting": "mice; Ext.:Saline vs. Ext.:LSD", "result": 6.343},
      {"measurement": "Mean Diff., ext fig 7o", "setting": "mice; No ext.:Saline vs. No ext.:LSD", "result": -0.7639},
      {"measurement": "Predicted (LS) mean of LSD, figure 7i", "setting": "mice; mean over WT and Y433F+/- mice", "result": 27.39},
      {"measurement": "Predicted (LS) mean of LSD, figure 7j", "setting": "mice; mean over WT and Y433F+/- mice", "result": 46.76},
      {"measurement": "Difference between predicted means (Saline - LSD), figure 7i", "setting": "mice; [5]", "result": 6.598},
      {"measurement": "Difference between predicted means (Saline - LSD), figure 7j", "setting": "mice; [5]", "result": 7.923},
      {"measurement": "Bdnf mRNA, group mean (5f)", "setting": "Bdnf mRNA; 1 h, fold change, 1 h vehicle 1", "result": 2.028},
      {"measurement": "Bdnf mRNA, group mean (5f)", "setting": "Bdnf mRNA; 24 h", "result": 0.7739},
      {"measurement": "Bdnf mRNA, group mean (5f)", "setting": "Bdnf mRNA; 72 h", "result": 0.7626},
      {"measurement": "Bdnf mRNA", "setting": "Bdnf mRNA; after LSD treatment", "result": "upregulated at 1 h"},
      {"measurement": "Bdnf mRNA, predicted (LS) mean over timepoints (5f)", "setting": "Bdnf mRNA; vehicle 1.015", "result": 1.188}
    ]}
  ]
}
